Here are results for 1 compound from US10301259B2, “Beta-cryptoxanthin from plant source and a process for its preparation” (OMNIACTIVE HEALTH TECHNOLOGIES LIMITED, priority 2013, dated 2019).

One series has as its system OVX rat model. As to the kind of experiment: Anti-resorptive / anti-osteoporotic activity in OVX rat model (overall conclusions). It is filed as in vivo, Wistar rats.
The conditions of series [1]: under similar conditions; Burri et al. (2011); cited from earlier work.

As to `CC1=C(/C=C/C(C)=C/C=C/C(C)=C/C=C/C=C(C)/C=C/C=C(C)/C=C/C2=C(C)CC(O)CC2(C)C)C(C)(C)CCC1` (stereo not drawn) [beta-cryptoxanthin, beta,beta-caroten-3-ol], the Anti-osteoporotic activity result with OVX rat model was “significant anti-osteoporotic activity”. Also, the “Bioavailability relative to beta-carotene” value in series [1] is recorded as about 7 fold.
